Reference: patent US4072689A, “Monoamino 2,4,5-trisubstituted oxazoles” (Gruppo Lepetit S.p.A., priority 1975, dated 1978)

Key:
[1] = tested on: carrageenin induced edema; assay: carrageenin-induced edema test, oral administration; type: in vivo, rats; conditions: mice
Protocol: The compounds of the invention have antiinflammatory activity. […] The compounds are orally administered at dosages varying from 10 to 200 mg/kg. and the observed percent decreases of the induced edema are between about 30 and about 65. The acute toxicity of these compounds is ordinarily very low, almost always being higher than 1000 mg/kg. Moreover the compounds of this invention are much less ulcerogenic than other known and wisely used anti-inflammatories, such as, for example, phenylbutazone.

[2] = acute toxicity, LD50 p.o. mice; conditions: mouse, in vivo, po

Compound | Percent inhibition of carrageenin induced edema ([1]; dose 50 mg/kg p.o.) | Percent inhibition of carrageenin induced edema ([1]; dose 100 mg/kg p.o.) | Percent inhibition of carrageenin induced edema ([1]; dose 200 mg/kg p.o.) | LD50 [2]
Cc1oc(-c2ccccc2)nc1C(N)=O [Example 2, 4-Carbamoyl-5-methyl-2-phenyloxazole] | 29% | 42% | 53% | > 1000 mg/kg
Cc1nc(-c2ccccc2)oc1C(N)=O [Example 1, 5-Carbamoyl-4-methyl-2-phenyloxazole] | 30% | 43% | 64% | > 1000 mg/kg
